In the OPERA property sets (Mansouri et al. 2018):

| Compound | logP |
| --- | --- |
| Cc1no[n+]([O-])c1Cc1ccccc1 | 2.22 |
| Cc1no[n+]([O-])c1S(=O)c1ccccc1 (stereo not given) | 1.75 |
| c1ccc2nonc2c1 | 1.69 |
| Cc1c(S(=O)c2ccccc2)no[n+]1[O-] (stereo not given) | 1.5 |
| Cc1nonc1C | 0.71 |
| Cc1nonc1C(N)=O | 0.31 |
| Cc1no[n+]([O-])c1N | -0.32 |
| CC(=O)Nc1nonc1N | -0.23 |
| O=Cc1c(-c2ccccc2)no[n+]1[O-] | 2.92 |
| Cc1no[n+]([O-])c1Sc1ccccc1 | 2.74 |
| c1ccc(-c2nonc2-c2ccccc2)cc1 | 3.83 |
| Cc1c(S(=O)(=O)c2ccccc2)no[n+]1[O-] | 2.03 |
| Cc1nonc1Sc1ccccc1 | 2.92 |
| Cc1nonc1S(=O)c1ccccc1 (stereo not given) | 1.76 |
| OCc1nonc1-c1ccccc1 | 1.92 |
| CCc1nonc1C | 1.18 |
| COC(=O)Nc1nonc1C | 0.42 |
| Cc1nonc1-c1ccccc1 | 2.59 |
| c1ccc2nsnc2c1 | 1.98 |
| CCS(=O)(=O)c1no[n+]([O-])c1C | 0.65 |
| Cc1no[n+]([O-])c1S(=O)(=O)c1ccccc1 | 2.26 |
| Cc1no[n+]([O-])c1C | 0.23 |

| Compound | logP |
| --- | --- |
| O=Cc1no[n+]([O-])c1-c1ccccc1 | 2.61 |
| Clc1nonc1-c1ccccc1 | 3.2 |
| Cc1c(Sc2ccccc2)no[n+]1[O-] | 2.63 |
| CC(=O)c1c(C)no[n+]1[O-] | 0.98 |
| Cc1c(N)no[n+]1[O-] | -0.17 |
| [O-][n+]1onc(-c2ccccc2)c1CO | 1.77 |
| Cc1n[se]nc1C | 0.89 |
| [O-][n+]1onc(-c2ccccc2)c1-c1ccccc1 | 3.64 |
| [O-][n+]1onc(-c2ccccc2)c1Cl | 2.7 |
| Cc1no[n+]([O-])c1Cl | 0.9 |
| CNC(=O)c1nonc1C | 0.56 |
| Cc1nonc1S(=O)(=O)c1ccccc1 | 2.36 |
| Cc1no[n+]([O-])c1-c1ccccc1 | 2.16 |
| c1cnon1 | 0.16 |
| COC(=O)c1nonc1C | 0.94 |
| Cc1no[n+]([O-])c1C(N)=O | 0.36 |
| Nc1nonc1-c1ccccc1 | 1.81 |
| Cc1nonc1[N+](=O)[O-] | 0.97 |
| COC(=O)c1c(C)no[n+]1[O-] | 0.69 |
| CNC(=O)Nc1nonc1C | 0.3 |
| CC(=O)c1no[n+]([O-])c1C | 0.8 |
| Cc1nonc1-c1ccccc1[N+](=O)[O-] | 2.21 |

| Compound | logP |
| --- | --- |
| Nc1c(-c2ccccc2)no[n+]1[O-] | 1.42 |
| Cc1c(-c2ccccc2)no[n+]1[O-] | 2.17 |
| Nc1nonc1NC(=O)c1ccccc1 | 1.41 |
| Cc1c(C=O)no[n+]1[O-] | 1.02 |
| Cc1no[n+]([O-])c1C=O | 1.29 |
| [O-][n+]1onc(Cc2ccccc2)c1Cc1ccccc1 | 3.65 |
| COC(=O)c1no[n+]([O-])c1C | 0.56 |
| [O-][n+]1onc(Cl)c1-c1ccccc1 | 2.82 |
| c1ccc2n[se]nc2c1 | 1.64 |
| O=[N+]([O-])c1nonc1-c1ccccc1 | 2.63 |
| CC(=O)Nc1nonc1C | 0.17 |
| [O-][n+]1onc(CO)c1-c1ccccc1 | 1.64 |
| Cc1c(C(N)=O)no[n+]1[O-] | 0.03 |
| Nc1no[n+]([O-])c1-c1ccccc1 | 1.47 |
| Nc1nonc1N | -0.49 |
| Cc1c(Cl)no[n+]1[O-] | 1.02 |
| Cc1c(Cc2ccccc2)no[n+]1[O-] | 2.08 |
| [O-][n+]1onc2ccccc21 | 1.43 |
| Cc1nonc1N | 0.09 |
| CCCc1nonc1C | 1.71 |
| Cc1nsnc1C | 1.28 |
